Assay results as given in ChEMBL document CHEMBL4219269, “Synthesis and anti-staphylococcal activity of novel bacterial topoisomerase inhibitors with a 5-amino-1,3-dioxane linker moiety” (Bioorg Med Chem Lett, 2018).
In brackets after ≈: the same amount, converted by molar mass.

Key:
[1] = target: T1, Voltage-gated inwardly rectifying potassium channel KCNH2 (Homo sapiens, UniProt Q12809); test: Inhibition of human ERG expressed in CHOK1 cells by patch clamp assay; type: cell-based
K562 = test: Antiproliferative activity against human K562 cells; type: cell-based
[2] = Inhibition of human topoisomerase-2 in etoposide-resistant K/VP.5 cells assessed as growth inhibition
Staphylococcus aureus [3] = test: Antibacterial activity against methicillin-resistant Staphylococcus aureus USA300 by CLSI method; type: functional
Homo sapiens = species: Homo sapiens; test: Inhibition of human topoisomerase-2 mediated kinetoplast DNA decatenation assessed as remaining activity at 100 uM relative to control
[4] = Inhibition of Staphylococcus aureus topoisomerase-4-mediated kinetoplast DNA decatenation after 30 mins by agarose gel electrophoresis
DNA gyrase = DNA gyrase (Staphylococcus aureus, UniProt P0A0K8+P20831); test: Inhibition of Staphylococcus aureus DNA gyrase supercoiling activity using pBR322 as substrate after 30 mins by agarose gel electrophoresis; type: protein-complex assay
Sequence of DNA gyrase (P0A0K8 whole entry): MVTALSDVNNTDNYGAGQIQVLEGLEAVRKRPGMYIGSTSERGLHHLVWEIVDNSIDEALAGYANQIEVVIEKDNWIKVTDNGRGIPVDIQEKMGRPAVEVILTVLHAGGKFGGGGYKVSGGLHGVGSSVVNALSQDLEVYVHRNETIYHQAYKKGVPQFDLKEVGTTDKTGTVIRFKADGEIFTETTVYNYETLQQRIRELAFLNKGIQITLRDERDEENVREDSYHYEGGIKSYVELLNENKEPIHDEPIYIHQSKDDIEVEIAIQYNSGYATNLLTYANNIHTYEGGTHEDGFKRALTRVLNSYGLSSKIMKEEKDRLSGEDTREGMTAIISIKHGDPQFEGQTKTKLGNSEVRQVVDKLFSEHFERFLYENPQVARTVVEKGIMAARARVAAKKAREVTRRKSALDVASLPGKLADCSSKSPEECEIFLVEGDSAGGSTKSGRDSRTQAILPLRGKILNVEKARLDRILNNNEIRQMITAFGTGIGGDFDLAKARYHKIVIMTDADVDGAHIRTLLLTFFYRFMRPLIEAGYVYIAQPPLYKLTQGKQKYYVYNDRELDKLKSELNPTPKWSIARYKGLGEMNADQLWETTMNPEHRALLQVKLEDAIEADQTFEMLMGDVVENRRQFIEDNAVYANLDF
Sequence of DNA gyrase (P20831 whole entry): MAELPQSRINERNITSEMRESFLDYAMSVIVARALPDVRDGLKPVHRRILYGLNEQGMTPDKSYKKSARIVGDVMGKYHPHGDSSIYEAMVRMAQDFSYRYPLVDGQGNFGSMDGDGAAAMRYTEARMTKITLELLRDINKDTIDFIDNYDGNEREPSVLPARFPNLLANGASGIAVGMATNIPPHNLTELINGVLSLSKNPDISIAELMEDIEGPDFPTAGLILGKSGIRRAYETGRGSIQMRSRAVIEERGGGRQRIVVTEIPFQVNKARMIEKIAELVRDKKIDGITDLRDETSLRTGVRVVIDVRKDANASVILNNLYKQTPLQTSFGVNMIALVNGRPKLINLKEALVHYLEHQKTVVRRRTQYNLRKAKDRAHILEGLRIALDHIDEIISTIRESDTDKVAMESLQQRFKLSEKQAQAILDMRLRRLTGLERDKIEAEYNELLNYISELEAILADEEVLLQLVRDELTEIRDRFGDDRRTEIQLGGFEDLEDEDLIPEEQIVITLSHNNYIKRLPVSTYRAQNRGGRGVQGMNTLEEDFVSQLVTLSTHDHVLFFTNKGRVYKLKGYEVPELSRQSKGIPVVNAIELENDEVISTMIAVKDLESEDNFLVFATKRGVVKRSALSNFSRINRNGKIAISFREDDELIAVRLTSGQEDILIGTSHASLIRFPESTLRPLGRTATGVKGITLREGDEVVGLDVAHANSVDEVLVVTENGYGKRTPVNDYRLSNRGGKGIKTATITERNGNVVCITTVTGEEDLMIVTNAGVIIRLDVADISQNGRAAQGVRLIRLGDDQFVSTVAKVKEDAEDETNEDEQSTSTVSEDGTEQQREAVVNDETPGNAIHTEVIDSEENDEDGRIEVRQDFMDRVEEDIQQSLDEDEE

Staphylococcus aureus [5] = test: Antibacterial activity against methicillin-sensitive Staphylococcus aureus ATCC 29213 by CLSI method; type: functional
[6] = target: T1, Voltage-gated inwardly rectifying potassium channel KCNH2; test: Inhibition of human ERG expressed in CHO cells using -80 mV holding potential measured after 3 mins; type: cell-based
[7] = Selectivity ratio of IC50 for human K562 cells to MIC for methicillin-sensitive Staphylococcus aureus ATCC 29213; type: toxicity

T1 sequence (Q12809 whole entry): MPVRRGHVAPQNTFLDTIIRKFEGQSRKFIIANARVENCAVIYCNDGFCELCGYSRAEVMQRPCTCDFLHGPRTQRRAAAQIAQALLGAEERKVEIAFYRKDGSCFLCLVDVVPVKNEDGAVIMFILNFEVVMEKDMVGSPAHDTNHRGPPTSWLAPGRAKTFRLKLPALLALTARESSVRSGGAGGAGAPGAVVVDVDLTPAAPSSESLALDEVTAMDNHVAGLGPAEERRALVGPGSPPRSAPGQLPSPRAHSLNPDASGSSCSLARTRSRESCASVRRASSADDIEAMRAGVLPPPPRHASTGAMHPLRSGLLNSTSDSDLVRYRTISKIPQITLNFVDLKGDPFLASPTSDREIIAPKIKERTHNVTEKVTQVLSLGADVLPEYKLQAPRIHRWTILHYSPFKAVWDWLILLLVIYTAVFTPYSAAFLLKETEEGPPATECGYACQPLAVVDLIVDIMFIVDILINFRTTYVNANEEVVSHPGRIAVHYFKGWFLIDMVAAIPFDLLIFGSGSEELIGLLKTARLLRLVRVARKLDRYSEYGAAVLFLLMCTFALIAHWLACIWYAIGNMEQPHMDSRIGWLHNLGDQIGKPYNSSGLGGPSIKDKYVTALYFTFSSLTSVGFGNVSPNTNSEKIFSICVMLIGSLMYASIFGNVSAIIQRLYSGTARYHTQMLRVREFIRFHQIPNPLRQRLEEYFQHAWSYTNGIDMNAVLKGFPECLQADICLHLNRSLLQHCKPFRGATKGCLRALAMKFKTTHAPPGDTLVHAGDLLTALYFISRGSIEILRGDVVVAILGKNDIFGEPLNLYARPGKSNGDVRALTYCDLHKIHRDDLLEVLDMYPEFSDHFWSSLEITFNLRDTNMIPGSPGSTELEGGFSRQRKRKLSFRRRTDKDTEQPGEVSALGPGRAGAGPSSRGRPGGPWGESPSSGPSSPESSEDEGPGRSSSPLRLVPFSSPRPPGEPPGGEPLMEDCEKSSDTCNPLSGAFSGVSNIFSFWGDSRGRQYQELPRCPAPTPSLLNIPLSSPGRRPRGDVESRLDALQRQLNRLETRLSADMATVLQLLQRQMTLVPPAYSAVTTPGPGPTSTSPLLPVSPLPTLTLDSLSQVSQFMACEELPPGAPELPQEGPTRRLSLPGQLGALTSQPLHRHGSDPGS

SMILES | IC50 [1] [µM] | IC50 (K562) [µM] | IC50 [2] [µM] | MIC (Staphylococcus aureus [3]) [µg/mL] | Activity (Homo sapiens) [%] | IC50 [4] [µM] | MIC (Staphylococcus aureus [5]) [µg/mL] | also measured
COc1ccc2nccc(CC[C@H]3CC[C@H](NCc4ccc5c(c4)OCCO5)CC3)c2c1 | 0.26 | 4.2 | 4.5 |  |  |  |  | 
COc1ccc2nccc(CCN3CCC(NCc4cc5c(cn4)OCCO5)CC3)c2c1 | 1.9 | 28 | 22 |  |  |  |  | 
COc1ccc2nccc(CC[C@H]3OC[C@H](NCc4ccc(Cl)c(Cl)c4)CO3)c2c1 | 4.8 | 20 | 15 | 0.5 (≈ 1.12 µM) | 93.2 | > 100 |  | 
COc1ccc2nccc(CC[C@H]3OC[C@H](NCc4ccc(Cl)cc4)CO3)c2c1 | 2 | 12 | 16 | 4 (≈ 9.69 µM) | 97.8 | > 100 | 1 (≈ 2.42 µM) | IC50 (DNA gyrase): 1.2 µM
COc1cc([C@@H]2c3cc4c(cc3[C@@H](O[C@@H]3O[C@@H]5CO[C@@H](C)O[C@H]5[C@H](O)[C@H]3O)[C@H]3COC(=O)[C@H]23)OCO4)cc(OC)c1O [ETOPOSIDE] |  | 0.3 | 5.1 |  | 33.6 |  |  | 
O=C(O)c1cn(C2CC2)c2cc(N3CCNCC3)c(F)cc2c1=O [CIPROFLOXACIN] |  |  |  |  | 85.5 | 14.3 |  | 
COc1ccc2nccc(CC[C@H]3OC[C@H](NCc4ccc(Cl)cn4)CO3)c2c1 |  |  |  |  |  |  | 8 (≈ 19.3 µM) | 
COc1ccc2nccc(CC[C@H]3OC[C@H](NCc4ccc5c(c4)NC(=O)CO5)CO3)c2c1 |  |  |  | 1 (≈ 2.22 µM) |  | > 100 | 1 to 2 (≈ 2.22 to 4.45 µM) | 
COc1ccc2nccc(CCN3CCC(NCc4ccc5c(n4)NC(=O)CO5)CC3)c2c1 | 3.8 | 19 | 16 |  |  |  |  | 
COc1ccc2nccc(CC[C@H]3CC[C@H](NCc4ccc(Cl)c(Cl)c4)CC3)c2c1 | 2.3 |  |  |  |  |  |  | 
COc1ccc2nccc(CC[C@H]3OC[C@H](NCc4ccccc4Cl)CO3)c2c1 |  |  |  |  |  |  | > 64 | 
COc1ccc2nccc(CCN3CCC(NCc4ccc5c(c4)OCCO5)CC3)c2c1 | 0.81 | 10 | 12 |  |  |  |  | 
COc1ccc2nccc(CC[C@H]3OC[C@H](NCc4ccccn4)CO3)c2c1 |  |  |  |  |  |  | 8 (≈ 21.1 µM) | 
O=c1ccc2ncc(=O)n3c2n1C[C@H]3CN1CCC(NCc2cc3c(cn2)OCCC3)CC1 [GEPOTIDACIN] |  |  |  |  |  |  |  | IC50 [6]: 1310 µM
COc1ccc2nccc(CC[C@H]3OC[C@H](NCc4cc5c(cn4)OCCO5)CO3)c2c1 | 9.5 | 40 | 48 | 2 (≈ 4.57 µM) | 95.1 | 50 | 1 to 2 (≈ 2.29 to 4.57 µM) | 
COc1ccc2nccc(CC[C@H]3OC[C@H](NCc4cccc(Cl)c4)CO3)c2c1 |  |  |  |  |  |  | 32 (≈ 77.5 µM) | 
CN[C@H](CC(C)C)C(=O)N[C@H]1C(=O)N[C@@H](CC(N)=O)C(=O)N[C@H]2C(=O)N[C@H]3C(=O)N[C@H](C(=O)N[C@H](C(=O)O)c4cc(O)cc(O)c4-c4cc3ccc4O)[C@H](O)c3ccc(c(Cl)c3)Oc3cc2cc(c3O[C@@H]2O[C@H](CO)[C@@H](O)[C@H](O)[C@H]2O[C@H]2C[C@](C)(N)[C@H](O)[C@H](C)O2)Oc2ccc(cc2Cl)[C@H]1O [VANCOMYCIN] |  |  |  | 1 to 2 (≈ 0.69 to 1.38 µM) |  |  |  | 
COc1ccc2nccc(CC[C@H]3OC[C@H](NCc4ccc5c(n4)NC(=O)CS5)CO3)c2c1 | 1.3 | 31 | 34 | 0.5 (≈ 1.07 µM) | 91.1 | > 100 | 0.5 (≈ 1.07 µM) | 
COc1ccc2nccc(CC[C@H]3OC[C@H](NCc4ccc5c(c4)OCCO5)CO3)c2c1 | 5.1 | 7.4 | 8.8 | 0.5 (≈ 1.15 µM) | 84.2 | 14 | 0.25 to 1 (≈ 0.573 to 2.29 µM) | selectivity ratio [7]: 3.5
COc1ccc2nccc(CC[C@H]3OC[C@H](NCc4cccnc4)CO3)c2c1 |  |  |  |  |  |  | > 64 | 
COc1ccc2nccc(CC[C@H]3OC[C@H](NCc4ccccc4)CO3)c2c1 |  |  |  |  |  |  | > 64 | 
COc1ccc2nccc(CCN3CCC(NCc4ccc(Cl)c(Cl)c4)CC3)c2c1 | 1 |  |  |  |  |  |  | 
COc1ccc2nccc(CC[C@H]3OC[C@H](NCc4cc5c(cn4)OCCC5)CO3)c2c1 | 12 | 32 | 40 | 2 (≈ 4.59 µM) | 93.8 | 25 to 50 | 1 (≈ 2.3 µM) | 
COc1ccc2nccc(CC[C@H]3OC[C@H](NCc4ccc5c(n4)NC(=O)CO5)CO3)c2c1 | 2.5 | 24 | 44 | 1 (≈ 2.22 µM) | 99.1 | > 100 | 0.5 (≈ 1.11 µM) | 
COc1ccc2nccc(CC[C@H]3CC[C@H](NCc4ccc5c(n4)NC(=O)CO5)CC3)c2c1 | 0.41 | 12 | 11 |  |  |  |  | 
COc1ccc2nccc(CC[C@H]3CC[C@H](NCc4cc5c(cn4)OCCO5)CC3)c2c1 | 0.94 | 7.5 | 5.7 |  |  |  |  | 
